Target: T1, soluble guanylate cyclase (sGC) endogenously expressed in HEK293 cells (Homo sapiens, UniProt Q02108+Q02153)
T1 construct: endogenously expressing soluble guanylate cyclase (sGC); endogenous in cells; host or cells: HEK293
T1 sequence (Q02153 1-619): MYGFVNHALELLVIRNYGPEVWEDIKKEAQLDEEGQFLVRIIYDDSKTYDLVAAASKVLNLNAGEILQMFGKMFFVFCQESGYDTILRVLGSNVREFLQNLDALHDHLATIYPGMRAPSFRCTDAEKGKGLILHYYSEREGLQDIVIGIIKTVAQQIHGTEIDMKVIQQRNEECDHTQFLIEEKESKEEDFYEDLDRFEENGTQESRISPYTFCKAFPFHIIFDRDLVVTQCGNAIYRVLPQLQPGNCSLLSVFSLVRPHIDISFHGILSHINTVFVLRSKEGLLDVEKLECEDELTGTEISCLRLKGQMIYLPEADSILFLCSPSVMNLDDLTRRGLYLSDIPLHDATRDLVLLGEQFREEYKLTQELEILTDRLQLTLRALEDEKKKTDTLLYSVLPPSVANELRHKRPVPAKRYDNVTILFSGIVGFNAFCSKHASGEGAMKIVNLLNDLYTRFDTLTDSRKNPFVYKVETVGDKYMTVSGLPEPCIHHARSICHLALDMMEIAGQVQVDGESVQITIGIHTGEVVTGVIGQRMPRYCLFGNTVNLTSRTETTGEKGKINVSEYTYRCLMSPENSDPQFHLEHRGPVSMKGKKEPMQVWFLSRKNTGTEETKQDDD
T1 sequence (Q02108 1-690): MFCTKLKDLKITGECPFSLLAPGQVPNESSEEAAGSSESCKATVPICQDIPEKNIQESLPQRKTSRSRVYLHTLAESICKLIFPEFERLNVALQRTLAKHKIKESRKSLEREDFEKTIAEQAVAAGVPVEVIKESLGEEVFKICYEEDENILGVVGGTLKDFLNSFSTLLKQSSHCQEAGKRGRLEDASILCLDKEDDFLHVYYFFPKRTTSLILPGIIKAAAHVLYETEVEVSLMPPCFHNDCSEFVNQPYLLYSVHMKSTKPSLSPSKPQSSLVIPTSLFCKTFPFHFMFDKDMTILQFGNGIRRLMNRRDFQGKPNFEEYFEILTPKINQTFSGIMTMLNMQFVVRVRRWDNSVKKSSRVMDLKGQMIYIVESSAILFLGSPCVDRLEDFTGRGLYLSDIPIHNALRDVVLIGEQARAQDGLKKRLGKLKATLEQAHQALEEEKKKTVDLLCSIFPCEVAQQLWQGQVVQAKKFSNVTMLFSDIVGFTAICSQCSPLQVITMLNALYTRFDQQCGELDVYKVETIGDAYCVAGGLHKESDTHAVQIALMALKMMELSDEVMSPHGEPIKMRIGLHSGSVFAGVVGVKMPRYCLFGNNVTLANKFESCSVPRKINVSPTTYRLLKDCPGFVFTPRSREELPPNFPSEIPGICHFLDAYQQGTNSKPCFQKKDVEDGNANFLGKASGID
Experiment: sGC-HEK-cGMP assay with LC/MS detection (whole cell)
Type: cell-based
Conditions: 10 μM DETA-NONOate, 20 min, concentration eliciting 50% of high control response (30 μM Compound Y), read-out: sGC_HEK_LC MS EC50 Abs
Protocol: Example 2: Biological Activity Measurement by the sGC-HEK-cGMP Assay, with LC/MS Detection
Human embryonic kidney cells (HEK293), endogenously expressing soluble guanylate cyclase (sGC), were used to evaluate the activity of test compounds. Compounds stimulating the sGC enzyme should cause an increase in the intracellular concentration of cGMP. HEK 293 cells were seeded in Dulbecco's Modification of Eagle's Medium supplemented with fetal bovine serum (10% final) and penicillin (100 U/mL)/streptomycin (100 μg/mL) in a 50 μL volume at a density of 1.5×10^4 cells/well in a poly-D-lysine coated 384 well flat bottom plate. Cells were incubated overnight at 37° C. in a humidified chamber with 5% CO2. Medium was aspirated and cells were washed with 1× Hank's Buffered Saline Salt Solution (50 μL). Cells were then incubated for 15 minutes at 37° C. with 50 μL of a 0.5 mM 3-isobutyl-1-methylxanthine (IBMX) solution. Test article and Diethylenetriamine NONOate (DETA-NONOate) solutions (x […] concentration for test article solution and 10 μM concentration for DETA-NONOate solution; wherein x is one of the following concentrations);
were then added to the assay mixture and the resulting mixture incubated at 37° C. for 20 minutes. After the 20 minute incubation, the assay mixture was aspirated and 10% acetic acid containing 150 ng/mL+3-cGMP (internal standard for LCMS) (50 μL) was added to the cells. The plate was incubated at 4° C. for 30 minutes in the acetic acid solution to stop the reaction and lyse the cells. The plates were then centrifuged at 1,000 g for 3 minutes at 4° C. and the supernatant transferred to a clean reaction plate for LCMS analysis.
cGMP concentrations were determined from each sample using the LCMS conditions below (Table 2) and calculated standard curve. The standard curve was prepared in 10% acetic acid with 150 ng/mL+3cGMP (isotopically labelled cGMP with a weight 3 units higher than wild type) with the following final concentrations of cGMP in ng/mL: 1, 5, 10, 50, 100, 250, 500, 1000, 2000.
Data were normalized to a high control using the following equation: 100*(Sample−Low Control)/(High Control−Low Control), where the low control is the average of 16 samples treated with 1% DMSO, and the high control is the average of 16 samples treated with 30 μM of Compound Y depicted below. Data were fit using a 4-parameter fit (log(agonist) vs. response variable slope) using GraphPad Prism Software v.5. n=2 for all compounds. The Absolute EC50 was interpolated from the curve fit and is defined as the concentration at which a given compound elicits 50% of the high control response. Compounds failing to elicit a minimum response of 50% are reported as >30 μM. For compounds run in duplicate or n higher than 2, the result herein given is the geometric mean of the several results obtained.

SMILES | EC50
COc1cc(-c2ncc(F)c(N(C)C)n2)nn1Cc1ccccc1F [Compound I-12] | ≥ 1 µM
CC1(C(N)=O)C(=O)Nc2nc(-c3cc(OC(F)F)n(Cc4cccc(F)c4F)n3)nc(N)c21 (stereo not drawn) [Compound I-53] | 0.101 to 1 µM
CCOC(=O)C1(C)C(=O)Nc2nc(-c3cc(OC(C)C)n(Cc4ccccc4F)n3)nc(N)c21 (stereo not drawn) [Compound I-8] | ≥ 1 µM
COc1cc(-c2ncc(F)c(N3CCCC3)n2)nn1Cc1ccccc1F [Compound I-22] | ≥ 1 µM
C[C@H]1CCCN(c2nc(-c3cc(OC(F)F)n(Cc4ccccc4F)n3)ncc2F)[C@H]1C(=O)O [Compound I-42] | 0.101 to 1 µM
COc1cc(-c2ncc(F)c(N3CCOCC3)n2)nn1Cc1ccccc1F [Compound I-23] | ≥ 1 µM
COc1nc(-c2nc(N)c3c(n2)NC(=O)C3(C)C(N)=O)nn1Cc1ccccc1F (stereo not drawn) [Compound I-17] | ≥ 1 µM
CC1(C(N)=O)C(=O)Nc2nc(-c3cc(OC(F)F)n(Cc4ccccc4F)n3)nc(N)c21 (stereo not drawn) [Compound I-71] | 0.101 to 1 µM
CCOc1cc(-c2nc(N)c3c(n2)NC(=O)C3(C)C(N)=O)nn1Cc1ccccc1F (stereo not drawn) [Compound I-28] | ≥ 1 µM
COc1cc(-c2nc3c(c(=O)[nH]2)C(C)(C(=O)NC2CC2)C(=O)N3)nn1Cc1ccccc1F (stereo not drawn) [Compound I-43] | ≥ 1 µM
COc1cc(-c2ncc(NC(=O)OCc3ccccc3)c(=O)[nH]2)nn1Cc1ccccc1F [Compound I-47] | ≥ 1 µM
CC1(C(N)=O)C(=O)Nc2nc(-c3cc(O)n(Cc4ccccc4F)n3)nc(N)c21 (stereo not drawn) [Compound I-48] | ≥ 1 µM
COc1cc(-c2ncc(F)c(NCC(O)CO)n2)nn1Cc1ccccc1F (stereo not drawn) [Compound I-64] | ≥ 1 µM
CCOC(=O)C1(C)C(=O)Nc2nc(-c3cc(OCC)n(Cc4ccccc4F)n3)nc(N)c21 (stereo not drawn) [Compound I-46] | 0.101 to 1 µM
COc1cc(-c2ncc(F)c(N3CCC[C@H](C)[C@@H]3C(=O)O)n2)nn1Cc1ccccc1F [Compound I-70] | 0.101 to 1 µM
COc1cc(-c2ncc(F)c(NCCO)n2)nn1Cc1ccccc1F [Compound I-13] | ≥ 1 µM
COc1cc(-c2ncc(F)c(NC(c3nnn[nH]3)C(C)C)n2)nn1Cc1ccccc1F (stereo not drawn) [Compound I-65] | ≥ 1 µM
CCOC(=O)C1(C)C(=O)Nc2nc(-c3cc(OC(F)F)n(Cc4ccc(F)cc4F)n3)nc(N)c21 (stereo not drawn) [Compound I-55] | 0.101 to 1 µM
O=c1[nH]c(-c2cc(OC(F)F)n(Cc3ccccc3F)n2)ncc1F [Compound I-4] | ≥ 1 µM
COc1cc(-c2ncc(F)c(NCC(N)=O)n2)nn1Cc1ccccc1F [Compound I-11] | ≥ 1 µM
COc1c(C#N)c(-c2nc(N)c3c(n2)NC(=O)C3(C)C(N)=O)nn1Cc1ccccc1F (stereo not drawn) [Compound I-25] | 0.101 to 1 µM
COc1cc(-c2ncc(F)c(N3CCC(C(=O)O)(C(C)C)CC3)n2)nn1Cc1ccccc1F [Compound I-67] | 0.101 to 1 µM
COc1cc(-c2nnc3c(n2)NC(=O)C3(C)C)nn1Cc1ccccc1F [Compound I-16] | 0.101 to 1 µM
CC1(C(N)=O)C(=O)Nc2nc(-c3nn(Cc4ccccc4F)c(=O)[nH]3)nc(N)c21 (stereo not drawn) [Compound I-10] | ≥ 1 µM

SMILES | EC50
COc1nc(-c2nc(N)c3c(n2)NC(=O)C3(C)C(=O)NC2CC2)nn1Cc1ccccc1F (stereo not drawn) [Compound I-37] | ≥ 1 µM
COc1cc(-c2ncc(F)c(NCC(=O)O)n2)nn1Cc1ccccc1F [Compound I-9] | ≥ 1 µM
CCOC(=O)C1(C)C(=O)Nc2nc(-c3nn(Cc4ccccc4F)c(=O)[nH]3)nc(N)c21 (stereo not drawn) [Compound I-21] | ≥ 1 µM
CC1(C(=O)NC2CC2)C(=O)Nc2nc(-c3cc(OC(F)F)n(Cc4cccc(F)c4F)n3)ncc21 (stereo not drawn) [Compound I-40] | 0.101 to 1 µM
COc1cc(-c2ncc(F)c(=O)[nH]2)nn1Cc1ccccc1F [Compound I-5] | ≥ 1 µM
COc1cc(-c2ncc(F)c(N3CCC(C)(C(=O)O)CC3)n2)nn1Cc1ccccc1F [Compound I-68] | 0.101 to 1 µM
Fc1cnc(-c2cc(OC(F)F)n(Cc3cccc(F)c3F)n2)nc1 [Compound I-59] | ≥ 1 µM
CCOC(=O)C1(C)C(=O)Nc2nc(-c3cc(OC(F)F)n(CCC(F)(F)C(F)(F)F)n3)nc(N)c21 (stereo not drawn) [Compound I-57] | ≥ 1 µM
Cn1c(-c2nc(N)c3c(n2)NC(=O)C3(C)C(=O)NC2CC2)nn(Cc2ccccc2F)c1=O (stereo not drawn) [Compound I-38] | ≥ 1 µM
COc1cc(-c2ncc(F)c(NC[C@@H](C(=O)O)C(C)C)n2)nn1Cc1ccccc1F [Compound I-60] | 0.101 to 1 µM
CCOC(=O)C1(C)C(=O)Nc2nc(-c3cc(OC(F)F)n(Cc4cccc(F)c4F)n3)nc(N)c21 (stereo not drawn) [Compound I-52] | 0.101 to 1 µM
COc1cc(-c2nc(N)c3c(n2)NC(=O)C3(C)C(N)=O)nn1Cc1ccccc1F (stereo not drawn) [Compound I-2] | 0.101 to 1 µM
COc1cc(-c2ncc(F)c(N3CC(C)C(C(=O)O)C3)n2)nn1Cc1ccccc1F (stereo not drawn) [Compound I-36] | ≥ 1 µM
COc1c(C)c(-c2nc(N)c3c(n2)NC(=O)C3(C)C(N)=O)nn1Cc1ccccc1F (stereo not drawn) [Compound I-27] | ≥ 1 µM
COc1cc(-c2ncc(F)c(N3CCCCC3)n2)nn1Cc1ccccc1F [Compound I-31] | ≥ 1 µM
CCOC(=O)C1(C)C(=O)Nc2nc(-c3cc(OC)n(CCC(F)(F)F)n3)nc(N)c21 (stereo not drawn) [Compound I-14] | ≥ 1 µM
COc1cc(-c2ncc(F)c(N3CCNCC3)n2)nn1Cc1ccccc1F [Compound I-24] | ≥ 1 µM
COc1cc(-c2ncc(F)c(NCCS(N)(=O)=O)n2)nn1Cc1ccccc1F [Compound I-69] | ≥ 1 µM
COc1cc(-c2ncc(F)c(N3CCC(S(N)(=O)=O)CC3)n2)nn1Cc1ccccc1F [Compound I-33] | ≥ 1 µM
CCOC(=O)C1(C)C(=O)Nc2nc(-c3nn(Cc4ccccc4F)c(OC)c3C)nc(N)c21 (stereo not drawn) [Compound I-45] | 0.101 to 1 µM
CCOC(=O)C1(C)C(=O)Nc2nc(-c3nn(Cc4ccccc4F)c(=O)n3C)nc(N)c21 (stereo not drawn) [Compound I-29] | ≥ 1 µM
COc1cc(-c2ncc(F)c(NCC(O)(C(N)=O)C(F)(F)F)n2)nn1Cc1ccccc1F (stereo not drawn) [Compound I-20] | 0.101 to 1 µM
CCOC(=O)C1(C)C(=O)Nc2nc(-c3nc(OC)n(Cc4ccccc4F)n3)nc(N)c21 (stereo not drawn) [Compound I-30] | ≥ 1 µM
CC1(C(=O)NC2CC2)C(=O)Nc2nc(-c3cc(OC(F)F)n(CCC(F)(F)C(F)(F)F)n3)nc(N)c21 (stereo not drawn) [Compound I-50] | ≥ 1 µM

Source: patent US20210214364A1, “sGC STIMULATORS” (Cyclerion Therapeutics, Inc., priority 2013, published 2021)
